# Key:
# [1] = Contrast-enhanced MR angiography (3D FLASH, 2.0 Tesla); format: in vivo, Ratten (Han. Wistar); details: directly after single i.v. 50 µmol/kg or 100 µmol/kg; 3 D FLASH 10/2.6/40°
# Experimental: Die Untersuchungen zur kontrastmittelgetützten MR Angiographie wurden an einem experimentellen MRT System (SISCO SIS 85, 2.0 Tesla) mit einer 3 D FLASH Technik (10/2.6/40°) durchgeführt. Um die Wirksamkeit von Kontrastmitteln zur Darstellung von Blutgefäßen zu bestimmen, wurden narkotisierte (Rompun® + Ketavet®,1 + 1, v/v; ≈ 1 ml pro kg Körpergewicht, i. m.) Ratten (Han. Wistar; ≈ 200 g Körpergewicht) MR-tomographisch untersucht.
# Figur 4 zeigt Abbildungen dieses Experiments. Die MIP (maximal intensity projection)-Bilder wurden berechnet aus den 3 D FLASH Experimenten vor (links) und direkt nach einmaliger i. v. Applikation von 50 µmol / kg (mitte) bzw. 100 µmol /kg (rechts) der Substanz aus Beispiel 1 g.
# [2] = T1 relaxivity in human plasma (Minispec pc 20); format: physicochemical
# [3] = Diffusibility: in vivo comparison with an intravasal and an extracellular contrast agent, ligated renal vessels; details: for Prozentsatz der im Blutraum verbliebenen Dosis: i.v. 20 µmol/kg each, ligated renal vessels, relative to Verbindung 2 set as 100 %
# Experimental: Als Versuchstiere dienten drei 250 g schwere, männliche (Schering-SPF-) Ratten. Den Tieren wurden die Nierengefäße abgebunden, um eine renale Eliminierung zu verhindern und bei angenommener vernachlässigbarer faekaler Eliminierung ein Maß für Diffusibilität der erfindungsgemäßen Formulierung aus dem Blut in das umgebende Gewebe zu erhalten. Je Tier wurden 0.5 ml (jeweils 10 mmol/L) der folgenden Kontrastmittel-Lösung intravenös appliziert: Gemisch aus je 1 Teil der Verbindung des Beispiels 1g, im folgenden Verbindung 1 genannt, des intravasalen Kontrastmittels Eu-DTPA-Albumin, im folgenden Verbindung 2 genannt, und des extrazellulären Kontrastmittels Dy-DTPA, im folgenden Verbindung 3 genannt. Über einen Katheter in der Arteria carotis communis wurden Blutproben zu folgenden Zeitpunkten entnommen: 15, 30, 45, 60, 90 sec, 3, 5, 10, 15 min p.i. In den gewonnenen Blutproben wurden jeweils parallel die Konzentrationen an Gadolinium (Gd), Europium (Eu) und Dysprosium (Dy) mittels Atomemissionsspektrometrie (ICP-AES) gemessen. Der im Blutraum verbliebene Anteil des intravasalen Kontrastmittels Verbindung 2 (Eu) wurde als 100 % gesetzt. Der im Blutraum verbliebene Anteil der erfindungsgemäßen Formulierung Verbindung 1 (Gd) und der Verbindung 3 (Dy, extrazelluläre Vergleichssubstanz) konnte durch die unterschiedliche Markierung im gleichen Tier verglichen werden und wurde prozentual ins Verhältnis zur Konzentration der Verbindung 2 gesetzt. Damit liefern diese Daten Angaben über den Verbleib der Verbindungen im Intravasalraum.
# [4] = rat, in vivo, iv, 100 umol/kg
# Text: Hierfür wurde nach einmaliger intravenöser Applikation (via einer Caudalvene) der Substanzen (Dosis: ≈ 100 µmol Metall pro kg Körpergewicht) die Substanzkonzentration im Blut (basierend auf dem Gd- bzw. Dy-Gehalt) über einen Zeitraum bis zu 120 Minuten p. i. mittels ICP-AES bestimmt. Die pharmakokinetischen Parameter: Verteilungsvolumen (Vss), Gesamtclearance (CLtot) und Eliminationshalbwertszeit (tb) wurden mit einem speziellen Computerprogramm (TOPFIT 2.0; Thomae, Schering, Gödecke) berechnet, wobei ein Zwei-Kompartment-Distributionsmodell zu Grunde gelegt wurde.
# Die Gd- und Dy-Gehalte im Blut wurden mittels ICP-AES bestimmt.
# Hierfür wurde nach einmaliger intravenöser Applikation (via einer Caudalvene) der Substanzen (Dosis: ≈ 100 µmol Metall pro kg Körpergewicht) die Substanzkonzentration im Blut (basierend auf dem Metallgehalt) über einen Zeitraum bis zu 120 Minuten p. i. mittels ICP-AES bestimmt. Die pharmakokinetischen Parameter: Verteilungsvolumen (Vss), Gesamtclearance (CLtot) und Eliminationshalbwertszeit (tb) wurden mit einem speziellen Computerprogramm (TOPFIT 2.0; Thomae, Schering, Gödecke) berechnet, wobei ein Zwei-Kompartment-Distributionsmodell zu Grunde gelegt wurde.
substance,measurement,setting,value
"1,4,7-Tris {1,4,7-tris(N-carboxylatomethyl)-10-(N-1-methyl-3,6-diaza-2,5,8-trioxooctan-1,8-diyl)-1,4,7,10-tetraazacyclododecan, Gd-Komplex}-10-(N-2H,2H,4H,4H,5H,5H-3-oxa-perfluor-tridecanoyl)-1,4,7,10-tetraazacyclododecan [Beispiel 1g]",Signalanstieg in den Blutgefäßen (MIP-Bilder),[1],ausgeprägter Signalanstieg in den Blutgefäßen und eine deutliche Kontrastierung zum Normalgewebe
same,R^1 (T^1-Relaxivity),"[2]; 0.47 T, 20 MHz, 37 °C, Humanplasma, normalised to one metal atom","19,5 L/mmol * sec"
same,"Relaxivity (r1, Plasma)",[2]; plasma,≈ 19.5 1*mmol^- ^1*s^-1
same,Prozentsatz der im Blutraum verbliebenen Dosis,[3]; 30 sec p.i.,84%
same,Prozentsatz der im Blutraum verbliebenen Dosis,[3]; 3 min p.i.,62%
same,Prozentsatz der im Blutraum verbliebenen Dosis,[3]; 10 min p.i.,44%
same,Blutkonzentrationen verglichen mit dem extrazellulären Kontrastmittel,[3]; early time points,deutlich höhere Blutkonzentrationen
same,Diffusion in das Interstitium im Vergleich zu Eu-DTPA-BSA (Verbindung 2),[3]; first minute p.i.,nur geringfügig schneller
same,Diffusion in das Interstitium im Vergleich zu Dy-DTPA (Verbindung 3),[3]; whole duration of the experiment,langsamer
same,CL tot,[4],0.41 mL/min/kg
same,Vss,[4],0.09 L/kg

# From EP0993306B1, “PERFLUOROALKYLATED OLIGOMER COMPOUNDS, PROCESS FOR PREPARING THE SAME AND THEIR USE IN NMR DIAGNOSIS” (SCHERING AKTIENGESELLSCHAFT, priority 1997, dated 1999)
